The source made the active and inactive calls. No cut-off for these calls is given here.
Columns and labels:
Rattus norvegicus [1] = species: Rattus norvegicus; experiment: Antihypertensive activity expressed as percentage of base-line systolic blood pressure of base-line values in spontaneously hypertensive rats (SHR) was reported after 24 hr; type: functional, Artery; note: test concentration or dose not given here
Rattus norvegicus [2] = species: Rattus norvegicus; experiment: Antihypertensive activity expressed as percentage of base-line systolic blood pressure of base-line values in spontaneously hypertensive rats (SHR) was reported after 4 hr; type: functional, Artery; note: test concentration or dose not given here
Rattus norvegicus [3] = species: Rattus norvegicus; experiment: Antihypertensive activity expressed as percentage of base-line systolic blood pressure of base-line values in spontaneously hypertensive rats (SHR) was reported after 2 hr; type: functional, Artery; note: test concentration or dose not given here
[4] = target: Beta-1 adrenergic receptor (Rattus norvegicus) (UniProt P18090); experiment: Antagonist activity was determined against beta-1 adrenergic receptor in spontaneously beating rat atria; type: functional
Sequence of Beta-1 adrenergic receptor (Rattus norvegicus) (P18090 whole entry, looked up): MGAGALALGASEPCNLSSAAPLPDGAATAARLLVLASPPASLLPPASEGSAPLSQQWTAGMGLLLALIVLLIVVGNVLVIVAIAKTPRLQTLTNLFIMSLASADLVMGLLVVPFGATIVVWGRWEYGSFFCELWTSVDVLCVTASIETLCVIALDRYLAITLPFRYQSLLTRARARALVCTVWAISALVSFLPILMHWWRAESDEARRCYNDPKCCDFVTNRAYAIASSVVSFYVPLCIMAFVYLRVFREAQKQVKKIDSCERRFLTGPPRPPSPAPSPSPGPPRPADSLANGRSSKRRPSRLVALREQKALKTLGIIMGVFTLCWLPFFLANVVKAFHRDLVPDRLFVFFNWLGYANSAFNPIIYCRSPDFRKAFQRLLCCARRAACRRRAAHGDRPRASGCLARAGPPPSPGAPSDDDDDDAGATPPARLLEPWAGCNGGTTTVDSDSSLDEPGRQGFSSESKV

[5] = target: Beta-1 adrenergic receptor (Rattus norvegicus) (UniProt P18090); settings: read-out: pA2 (converted)

| NA [4] | Kb [5] [nM] | Compound | Baseline systolic BP (Rattus norvegicus [1]) [%] | Baseline systolic BP (Rattus norvegicus [2]) [%] | Baseline systolic BP (Rattus norvegicus [3]) [%] |
| --- | --- | --- | --- | --- | --- |
| – | – | CC(C)NC[C@H](O)COc1ccc(CCOCC2CC2)cc1 [LEVOBETAXOLOL] | -13 | -12 | -10 |
| – | – | CC(C)NCC(O)COc1ccc(CCS(=O)(=O)CC2CCC2)cc1.Cl (stereo not given) | 1 | -13 | -4 |
| – | – | CC(C)NCC(O)COc1ccc(CCOC2CCCC2)cc1.Cl (stereo not given) | -7 | -16 | -8 |
| – | – | CC(C)NCC(O)COc1ccc(CCOCC2CC2)cc1.Cl (stereo not given) [BETAXOLOL HYDROCHLORIDE] | -6 | -19 | -22 |
| – | – | CC(C)NCC(O)COc1ccc(C[S+]([O-])CC2CC2)cc1 (stereo not given) | -2 | -8 | -4 |
| – | – | CC(C)NCC(O)COc1ccc(CCSCC2CCC2)cc1 (stereo not given) | -3 | -6 | -2 |
| inactive | – | CC(C)NCC(O)COc1ccc(C[S+]([O-])CC2CCCC2)cc1 (stereo not given) | -1 | -7 | -5 |
| – | – | CC(C)NCC(O)COc1ccc(COCC2CC2)cc1 (stereo not given) | -6 | -3 | -4 |
| – | – | Cl.OC(CNC1CC1)COc1ccc(CCOCC2CCC2)cc1 (stereo not given) | 0 | -5 | 0 |
| – | – | CC(C)NCC(O)COc1ccc(CCOCC2CC2)cc1 (stereo not given) [BETAXOLOL] | 3 | 5 | 3 |
| – | – | CC(C)NCC(O)COc1ccc(CCCOCC2CCC2)cc1.O=C(O)C(=O)O (stereo not given) | -1 | -11 | -11 |
| – | – | COCCc1ccc(OCC(O)CNC(C)C)cc1 (stereo not given) [METOPROLOL] | -12 | -2 | 4 |
| – | – | CC(C)NCC(O)COc1ccc(CCOCC2CCC2)cc1.Cl (stereo not given) | -4 | -16 | -16 |
| – | 186 | CC(=O)Nc1ccc(OCC(O)CNC(C)C)cc1 (stereo not given) [PRACTOLOL] | – | – | – |
| – | – | CC(C)NCC(O)COc1cccc2ccccc12 (stereo not given) [PROPRANOLOL] | -9 | 0 | 0 |
| – | – | CC(C)NCC(O)COc1ccc(CCOC2CCCCC2)cc1 (stereo not given) | -12 | -2 | 4 |
| – | – | CC(C)NCC(O)COc1ccc(CCOC2CCCC2)cc1 (stereo not given) | -4 | -11 | -17 |
| – | – | CC(C)NCC(O)COc1ccc(CCOCC2CCCC2)cc1 (stereo not given) | -8 | -16 | -21 |
| – | – | CC(CCc1ccccc1)NCC(O)COc1ccc(CCOCC2CCC2)cc1 (stereo not given) | 2 | 1 | -1 |
| – | – | CC(C)NCC(O)COc1ccc(CCS(=O)(=O)CC2CCCCC2)cc1.Cl (stereo not given) | -2 | -2 | -6 |
| – | – | CC(C)NCC(O)COc1ccc(CCOCC2CCCCC2)cc1.Cl (stereo not given) | -7 | -18 | -14 |
| – | – | CC(=O)NCCNCC(O)COc1ccc(CCOCC2CCC2)cc1.Cl (stereo not given) | -7 | -8 | -6 |
| – | – | CC(CC#N)NCC(O)COc1ccc(CCOCC2CCC2)cc1.Cl (stereo not given) | -2 | -4 | -2 |
| – | – | CC(C)NCC(O)COc1ccc(CCS(=O)(=O)CC2CCCO2)cc1.Cl (stereo not given) | -3 | -16 | -22 |
| – | – | COc1ccc(CCNCC(O)COc2ccc(CCOCC3CCC3)cc2)cc1OC.Cl (stereo not given) | -6 | -5 | -7 |
| – | – | CC(CCc1ccc(F)cc1)NCC(O)COc1ccc(CCOCC2CCC2)cc1 (stereo not given) | -2 | -10 | -4 |
| – | – | CC(C)NCC(O)COc1ccc(COCC2CCC2)cc1.Cl (stereo not given) | -1 | -6 | -9 |
